Biological target: T1, EtoX (TRAP transporter, periplasmic ethanolamine binding protein, MED193_10041)
T1 construct: full-length codon optimized, C-terminal His-tag
Experiment: microscale thermophoresis with purified recombinant EtoX
Parameters: species or system Phaeobacter sp. MED193

Compound: NCCO [ethanolamine]
- Kd: 7.88 ± 1.88 µM

Source: article PMC10132767, “Bacterial catabolism of membrane phospholipids links marine biogeochemical cycles” (Science Advances, 2023)
